How the values were obtained:
[1] = tested on: HGC-27 cells; assay: Three-dimensional migration (Transwell assay), HGC-27; format: cell-based; settings: for Cell number (transmembrane cells): 24 h, n = 9
Description: Starved cells were digested and collected, which were suspended in serum-free medium. The cell intensity was adjusted into 3×10^5 s cells/mL. 100 μL of the cell suspension was added into the upper chamber and 700 μL of medium with 10% serum to the lower chamber per well. According to the experimental design, 50 μL serum-free medium was added per well for the control group, 50 μL of drug-containing serum-free medium was added for the administration groups. They were continued to be cultured in the incubator for another 24 h. The upper chamber was taken, with methanol fixation for 30 min, dyed with Giemsa stain for 30 min, rinsed with clean water twice. The cells on the bottom membrane surface of the upper chamber were carefully wiped off with a wet cotton swab, dried in the air. With the bottom up, they were transferred onto glass slide and sealed with neutral gum. Under the microscope, nine random fields were taken and the transmembrane cells therein were counted. The average values were statistically calculated.

[2] = tested on: Murine Lewis lung carcinoma cell line; assay: Spontaneous metastatic cancer in mice (Lewis lung carcinoma); settings: for Inhibition rate of metastasis loci / Metastasis rate / Number of lung (metastasis loci) / Tumor weight / tumor inhibition rate: intragastric administration
Description: The tumors growed to 1000 mm^3 and then were randomly divided into groups for adminstration, the groups were treated after three weeks. A total of 4 groups including ZYS-1 high, medium and low (100, 50, 25 mg/kg/d, intragastric administration) and positive control (gefitinib 100 mg/kg/d, intragastric administration) groups were set. The efficacy of ZYS-1 was evaluated in terms of general survival status (food intake, activity, hair etc.), tumor inhibition rate and metastasis inhibition rate.
The curve of tumor growth was plotted. On the next day after completing the treatment cycle, the animal was weighed. After collecting the blood, the animal was sacrificed. The tumor tissue was stripped, weighed, and the tumor inhibition rate was calculated. Store at −80 ? .
Metastasis rate=Number of mice with metastasis/Total number of mice×100%
Inhibition rate of metastasis loci=(average number of metastasis loci in the control group−average number of metastasis loci in the experimental group)/average number of metastasis loci in the control group×100%

[3] = In vivo pharmacokinetic comparison in rats
Description: Twelve male Wistar rats were randomly divided into ZYS-1 group and PAC-1 group. These rats were fasted for 12 hours before administration, and fed water freely. After ZYS-1 and PAC-1 needle crystal were given at the dose of 60 mg/Kg, 0.5 mL orbital blood was collected at 0, 5, 20, 30, 45, 60, 120, 180, 240, 360, 480, 720 mins, centrifuged at 5000 r/min for 5 min. 200 μL plasma was taken. The plasma was added 3 mL acetone and vortexed for 1 min. After centrifuging at 15000 r/min for 5 min, the supernatant was collected and dried under nitrogen at 37° C., to which 200 μL acetonitrile was added to be reconstituted. After sonication for 10 min, the mixture was vortexed for 1 min, and filtered through 0.45 microporous filter membrane. The filtrate was tested by HPLC, and the plasma concentration at each time point was calculated.

[4] = tested on: ICR mice; assay: in vivo; format: in vivo
Description: (§1) Experimental material: ZYS-1
(§2) Experimental animals and feeding conditions: ICR mice, half male and half female. Body weight 20±2 g, provided by Beijing Weitonglihua Experimental Animal Technology Co., Ltd., SPF grade feeding, certificate: SCXK (Beijing) 2006-0009. Particulate feed for mouse breeding was provided by Beijing Ke'ao Xieli Feed Co., Ltd. Animals were housed in barrier-level (Grade 2) animal lab in Beijing Anzhen Hospital, fluorescent lighting, 12 h light and dark cycle, room temperature 22˜24 ? , humidity 40-47%, air supply 10-12 times/h, Laboratory license number: SYXK (Beijing) 2005-0028. Mice were housed in clear plastic boxes with 5 per cage separated by gender.
(§3) Preparation method of test drug: A white powder of ZYS-1 was placed in a mortar to be finely ground. The drug was accurately weighed before use, which was formulated with 0.5% CMC-Na to reach the desired concentration.
(§4) Animals grouping: After fasting (except for water) for 11 h, according to body weight, animals were randomly divided into groups of 10 with 5 males and 5 females. There were 8 groups in total. […]. One-time intragastric administration was used in the experiment. The negative control group was orally administered an equal volume of 0.5% CMC-Na. The animals started feeding at 3 hours after administration.
(§5) Observed indicators: immediately after administration, the observation of the responses of the animals to drugs (such as: general performance, respiration, activity, with or without convulsions, righting reflex, pain reflex, response to external stimuli and other indicators) was started. After observing and recording the symptom of toxic reaction, the time and duration of toxicity, recovery time, and the time of animal death. After the animal was dead, it was immediately grossly dissected, visually observing each of the main organs (heart, liver, spleen, lung and kidney, stomach) to see if there was congestion, increased volume, hardens, discoloration. The survival animals were observed and recorded day by day whether there was delayed toxicity reaction and delayed death within 7 days, and weigh and feed the animals once every 2 days. After finishing the 7 day's observation, the survival animals were grossly dissected and the situations of the main organs were observed. LD50 was calculated according to the number of animal deaths in each group.

[5] = in vivo; format: in vivo; settings: both sexes, ICR, mouse, in vivo, po
Description: as §1, §2, §3, §4, §5

[6] = Homo sapiens, HGC-27, 24 h, read-out: Inhibition Rate
[7] = male Wistar rats, 60 mg/Kg, n = 6
[8] = both, ICR, mouse, in vivo, 7 days
[9] = one-time intragastric administration, mice

SMILES: C=CCc1cccc(/C=N/NC(=O)CN2CCN(Cc3ccccc3)CC2)c1O [ZYS-1, 1-Piperazineacetic acid, 4-(phenylmethyl)-2-[[2-hydroxy-3-(2-propen-1-yl)phenyl]methylene]]
- Cell number (transmembrane cells) ([1]; 2 μM): 33.00 ± 10.00
- Cell number (transmembrane cells) ([1]; 4 μM): 26.30 ± 13.37
- Cell number (transmembrane cells) ([1]; 8 μM): 22.44 ± 9.82
- inhibition at 2 µM [1, 6]: 24.6%
- inhibition at 4 µM [1, 6]: 39.9%
- inhibition at 8 µM [1, 6]: 48.7%
- Inhibition rate of metastasis loci ([2]; 25 mg/kg/d): 54.68%
- Metastasis rate ([2]; 25 mg/kg/d): 100%
- Number of lung (metastasis loci) ([2]; 25 mg/kg/d): 6.3 ± 3.3
- Tumor weight ([2]; 25 mg/kg/d): 1.9579 ± 0.8346 g
- tumor inhibition rate ([2]; 25 mg/kg/d): 50.63%
- Inhibition rate of metastasis loci ([2]; 50 mg/kg/d): 61.15%
- Metastasis rate ([2]; 50 mg/kg/d): 100%
- Number of lung (metastasis loci) ([2]; 50 mg/kg/d): 5.4 ± 2.6
- Tumor weight ([2]; 50 mg/kg/d): 1.5844 ± 0.8288 g
- tumor inhibition rate ([2]; 50 mg/kg/d): 60.05%
- Metastasis rate ([2]; 100 mg/kg/d): 100%
- Number of lung (metastasis loci) ([2]; 100 mg/kg/d): 3.8 ± 1.9
- Tumor weight ([2]; 100 mg/kg/d): 1.0209 ± 0.7332 g
- tumor inhibition rate ([2]; 100 mg/kg/d): 74.26%
- Hair Condition ([2]; high and medium dose (100, 50 mg/kg/d), tumor-bearing mice): shiny coat
- MRT(0-∞) [3, 7]: 420.4914 ± 271.8423 h
- T½ka [3, 7]: 22.9129 ± 6.3243 h
- T½α [3, 7]: 209.5239 ± 129.5666 h
- V/F [3, 7]: 0.0308 ± 0.0167 L
- ka [3, 7]: 0.0324 ± 0.0098 h⁻¹
- ke [3, 7]: 0.0048 ± 0.0033 h⁻¹
- lagtime [3, 7]: 4.6861 ± 5.2184 h
- AUC(0-inf) ([3]; male, Wistar, rat, plasma, 60 mg/kg, n = 6): 724 ± 207 µg·h/mL
- AUC ([3]; male, Wistar, rat, plasma, 60 mg/kg, n = 6, read-out: AUC(0-tn)): 389 ± 136 µg·h/mL
- Cmax ([3]; male, Wistar, rat, plasma, 60 mg/kg, n = 6, read-out: Cmax): 2190 ± 127 ng/mL
- MRT ([3]; male, Wistar, rat, plasma, 60 mg/kg, n = 6, read-out: MRT(0-tn)): 167 ± 51.5 h
- Tmax ([3]; male, Wistar, rat, plasma, 60 mg/kg, n = 6, read-out: Tmax): 65 ± 9.44 h
- 0% mortality dose [4, 8]: 343 mg/kg
- non-significant toxic reaction dose [4, 8]: 343 mg/kg
- neurotoxicity, ZYS-1 compared with PAC-1 ([4]; both, ICR, mouse, in vivo, po, 7 days): Comparing the experimental results of acute toxicity of ZYS-1 and PAC-1, it can be seen that ZYS-1 has lower neurotoxicity.
- time for most survival animals to return to normal after administration [4, 9]: ≤ 12 h
- time of death after administration (mainly) [4, 9]: ≤ 6 h
- LD50 at 7 days ([5]; LD50 95% confidence limit): 1090 to 2290 mg/kg
- LD50 at 7 days ([5]; LD50 dose): 1670 mg/kg
